According to ChEMBL document CHEMBL1142900, “Biological profile of new apoptotic agents based on 2,4-pyrido[2,3-d]pyrimidine derivatives” (Bioorg Med Chem, 2007):
pIC50: −log10 of the molar value. Values belong to the compound of their own block, whether it stands above or below them. Calls of active or inactive are those of the source. The calls are words filed in the database; no cut-off is given here.

Assays:
[1] = biological target: T1, Caspase-3 (Homo sapiens) (UniProt P42574); experiment: Effect on MDA-MB-231 cell lysate caspase 3 activity after 24 hrs relative to control by substrate assay; type: cell-based
T1 sequence (whole entry): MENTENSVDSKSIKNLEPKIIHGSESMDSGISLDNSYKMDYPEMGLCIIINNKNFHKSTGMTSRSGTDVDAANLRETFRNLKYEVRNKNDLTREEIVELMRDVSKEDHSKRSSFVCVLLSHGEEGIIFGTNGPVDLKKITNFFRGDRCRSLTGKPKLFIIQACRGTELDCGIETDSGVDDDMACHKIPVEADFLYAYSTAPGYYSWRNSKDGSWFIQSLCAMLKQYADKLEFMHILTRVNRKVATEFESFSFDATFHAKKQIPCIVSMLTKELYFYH

[2] = system: T-24; experiment: Cell cycle arrest in T24 cells by accumulation at G1 phase at 5 uM after 12 hrs; type: functional, Homo sapiens
[3] = system: T-24; experiment: Increase in cell death of T24 cells; type: functional, cell-based; settings: Homo sapiens, TDE = time-dependent effect
[4] = system: HT-29; experiment: Cell cycle arrest in HT29 cells by accumulation at G1 phase at 8.9 uM after 10 hrs; type: functional, Homo sapiens
[5] = system: T-24; experiment: Cell cycle arrest in T24 cells by accumulation at S phase at 5 uM after 8 hrs; type: functional, Homo sapiens
[6] = system: T-24; experiment: Effect on apoptosis in T24 cells assessed as DNA fragmentation after 8 hrs; type: functional, cell-based; settings: Homo sapiens
[7] = system: T-24; experiment: Cell cycle arrest in T24 cells by accumulation at subG1 phase at 5 uM after 8 hrs; type: functional, Homo sapiens
[8] = system: HT-29; experiment: Cell cycle arrest in HT29 cells by accumulation at G2 phase at 8.9 uM after 12 hrs; type: functional, Homo sapiens
[9] = system: T-24; experiment: Cell cycle arrest in T24 cells by accumulation at G2 phase at 5 uM after 10 hrs; type: functional, Homo sapiens
[10] = system: T-24; experiment: Effect on apoptosis in T24 cells assessed as increase in caspase 3 activation after 48 hrs relative to control by flow cytometry; type: functional, cell-based; settings: Homo sapiens
[11] = system: HT-29; experiment: Effect on apoptosis in HT29 cells assessed as increase in caspase 3 activation after 48 hrs relative to control by flow cytometry; type: functional, cell-based; settings: Homo sapiens
[12] = system: HT-29; experiment: Effect on apoptosis in HT29 cells assessed as DNA fragmentation after 8 hrs; type: functional, cell-based; settings: Homo sapiens
[13] = Cytotoxicity against CRL8799 cells; type: cell-based; settings: human
[14] = system: HT-29; experiment: Growth inhibition of human HT29 cells by neutral red assay; type: functional, cell-based
[15] = system: HT-29; experiment: Cell cycle arrest in HT29 cells by accumulation at G2 phase at 8.9 uM after 10 hrs; type: functional, Homo sapiens
[16] = system: T-24; experiment: Growth inhibition of human T24 cells by neutral red assay; type: functional, cell-based
[17] = system: T-24; experiment: Effect on apoptosis in T24 cells assessed as increase in caspase 3 activation after 24 hrs relative to control by flow cytometry; type: functional, cell-based; settings: Homo sapiens
[18] = system: T-24; experiment: Cell cycle arrest in T24 cells by accumulation at S phase at 5 uM after 10 hrs; type: functional, Homo sapiens
[19] = system: T-24; experiment: Cell cycle arrest in T24 cells by accumulation at G1 phase after 24 hrs; type: functional, Homo sapiens
[20] = system: HT-29; experiment: Cell cycle arrest in HT29 cells by accumulation at G1 phase at 8.9 uM after 8 hrs; type: functional, Homo sapiens
[21] = system: HT-29; experiment: Cell cycle arrest in HT29 cells by accumulation at subG1 phase at 8.9 uM after 10 hrs; type: functional, Homo sapiens
[22] = system: HT-29; experiment: Cell cycle arrest in HT29 cells by accumulation at subG1 phase after 24 hrs; type: functional, Homo sapiens
[23] = system: HT-29; experiment: Effect on apoptosis in HT29 cells assessed as increase in caspase 3 activation after 14 hrs relative to control by flow cytometry; type: functional, cell-based; settings: Homo sapiens
[24] = system: T-24; experiment: Cell cycle arrest in T24 cells by accumulation at S phase at 5 uM after 12 hrs; type: functional, Homo sapiens
[25] = system: T-24; experiment: Cell cycle arrest in T24 cells by accumulation at subG1 phase after 24 hrs; type: functional, Homo sapiens
[26] = system: T-24; experiment: Cell cycle arrest in T24 cells by accumulation at G2/M phase after 24 hrs at 0.6 uM; type: functional, Homo sapiens
[27] = system: HT-29; experiment: Cell cycle arrest in HT29 cells by accumulation at G1 phase at 8.9 uM after 12 hrs; type: functional, Homo sapiens
[28] = system: HT-29; experiment: Cell cycle arrest in HT29 cells by accumulation at G2/M phase after 24 hrs at 0.89 uM; type: functional, Homo sapiens
[29] = system: T-24; experiment: Cell cycle arrest in T24 cells by accumulation at G2 phase at 5 uM after 12 hrs; type: functional, Homo sapiens
[30] = system: MDA-MB-231; experiment: Increase in cell death of MDA-MB-231 cells; type: functional, cell-based; settings: Homo sapiens, TDE = time-dependent effect
[31] = system: HT-29; experiment: Cell cycle arrest in HT29 cells by accumulation at subG1 phase at 8.9 uM after 8 hrs; type: functional, Homo sapiens
[32] = system: HT-29; experiment: Cell cycle arrest in HT29 cells by accumulation at subG1 phase at 8.9 uM after 12 hrs; type: functional, Homo sapiens
[33] = system: HT-29; experiment: Cell cycle arrest in HT29 cells by accumulation at S phase after 24 hrs; type: functional, Homo sapiens
[34] = system: T-24; experiment: Cell cycle arrest in T24 cells by accumulation at S phase after 24 hrs; type: functional, Homo sapiens
[35] = system: T-24; experiment: Cell cycle arrest in T24 cells by accumulation at G1 phase at 5 uM after 8 hrs; type: functional, Homo sapiens
[36] = system: HT-29; experiment: Effect on apoptosis in HT29 cells assessed as increase in caspase 3 activation after 24 hrs relative to control by flow cytometry; type: functional, cell-based; settings: Homo sapiens
[37] = system: T-24; experiment: Effect on apoptosis in T24 cells assessed as increase in caspase 3 activation after 14 hrs relative to control by flow cytometry; type: functional, cell-based; settings: Homo sapiens
[38] = system: T-24; experiment: Cell cycle arrest in T24 cells by accumulation at G1 phase at 5 uM after 10 hrs; type: functional, Homo sapiens
[39] = Cytotoxicity against CRL11233 cells; type: cell-based; settings: human
[40] = system: HT-29; experiment: Cell cycle arrest in HT29 cells by accumulation at S phase at 8.9 uM after 10 hrs; type: functional, Homo sapiens
[41] = biological target: T1, Caspase-3 (Homo sapiens); experiment: Effect on MDA-MB-231 cell lysate caspase 3 activity after 14 hrs relative to control by substrate assay; type: cell-based
[42] = system: T-24; experiment: Cell cycle arrest in T24 cells by accumulation at subG1 phase at 5 uM after 10 hrs; type: functional, Homo sapiens
[43] = system: HT-29; experiment: Cell cycle arrest in HT29 cells by accumulation at G1 phase after 24 hrs; type: functional, Homo sapiens
[44] = system: HT-29; experiment: Cell cycle arrest in HT29 cells by accumulation at G2 phase at 8.9 uM after 8 hrs; type: functional, Homo sapiens
[45] = biological target: T1, Caspase-3 (Homo sapiens); experiment: Effect on MDA-MB-231 cell lysate caspase 3 activity after 48 hrs relative to control by substrate assay; type: cell-based
[46] = system: HT-29; experiment: Cell cycle arrest in HT29 cells by accumulation at S phase at 8.9 uM after 12 hrs; type: functional, Homo sapiens
[47] = system: HT-29; experiment: Increase in cell death of HT29 cells; type: functional, cell-based; settings: Homo sapiens, TDE = time-dependent effect
[48] = system: T-24; experiment: Cell cycle arrest in T24 cells by accumulation at G2 phase at 5 uM after 8 hrs; type: functional, Homo sapiens
[49] = system: HT-29; experiment: Cell cycle arrest in HT29 cells by accumulation at S phase at 8.9 uM after 8 hrs; type: functional, Homo sapiens
[50] = system: T-24; experiment: Cell cycle arrest in T24 cells by accumulation at subG1 phase at 5 uM after 12 hrs; type: functional, Homo sapiens
[51] = Growth inhibition of human HTB26 cells by neutral red assay; type: functional, cell-based
[52] = system: MDA-MB-231; experiment: Growth inhibition of human MDA-MB-231 cells by neutral red assay; type: functional, cell-based

Activity [1]: inactive | pIC50 [14]: 5.05 | Activity [41]: inactive | Activity [45]: inactive
Compound: COc1ccc(CNc2nc(NCc3ccc(OC)cc3)c3cccnc3n2)cc1
Activity [2]: 26% | Activity [3]: tde | Activity [4]: 22% | Activity [5]: 13% | Activity [6]: Active | Activity [7]: 7% | Activity [8]: 33% | Activity [9]: 40% | Activity [10]: Active | Activity [11]: Active | Activity [12]: Active | Activity [13]: Non-toxic | Activity [15]: 36% | pIC50 [16]: 5.30 | Activity [17]: Active | Activity [18]: 13% | Activity [19]: 42% | Activity [20]: 35% | Activity [21]: 25% | Activity [22]: 7% | Activity [23]: Active | Activity [24]: 10% | Activity [25]: 6% | Activity [26]: 38% | Activity [27]: 17% | Activity [28]: 52% | Activity [29]: 36% | Activity [30]: tde | Activity [31]: 8% | Activity [32]: 34% | Activity [33]: 11% | Activity [34]: 13% | Activity [35]: 36% | Activity [36]: Active | Activity [37]: Active | Activity [38]: 28% | Activity [39]: Non-toxic | Activity [40]: 17% | Activity [42]: 18% | Activity [43]: 30% | Activity [44]: 38% | Activity [46]: 17% | Activity [47]: tde | Activity [48]: 43% | Activity [49]: 19% | Activity [50]: 28% | pIC50 [51]: 5.82

Compound: CCC1(O)C(=O)OCc2c1cc1n(c2=O)Cc2cc3ccccc3nc2-1 (single isomer, unassigned) [CAMPTOTHECIN]
pIC50 [52]: 6.54 | pIC50 [14]: 7.85 | pIC50 [16]: 8.22
